Measured values published in patent US20190262323A1, “COMPOSITIONS AND METHODS FOR TREATING NEURODEGENERATIVE DISORDERS” (GEORGETOWN UNIVERSITY, priority 2016, published 2019).

Columns and labels:
[1] = Pharmacokinetic analysis of brain and serum by mass spectrometry; assay type: in vivo, C57BL/6 mice
Description: C57BL/6 mice received a single IP dose of 1.25, 2.5, 5, or 10 mg/kg LCB, and brain and serum were collected at 2, 4, 6, or 8 hours (n=3 per dose and time point). Animals injected with vehicle (DMSO) were used for background subtraction. Drug levels were determined at the Georgetown University Proteomics and Metabolomics Shared Resources (PMSR). Stock solution for LCB-03110 [(approximately 1 mg/mL each) was prepared in methanol/dichloromethane (50:50). The serial dilutions for each of the standards were produced for the study separately in methanol/HPLC grade water (50:50). Preparation of the calibration curve standards and quality samples (QC) was performed by mixing the stock solutions in blank samples. The final calibration concentration for LCB-03110 ranged from 0.1 ng/mL to 100 ng/mL. The QC concentrations were 30 ng/mL, 3 ng/mL and 0.3 ng/mL, respectively. Serum and brain samples were stored at −80° C. and then thawed to room temperature prior to preparation. The thawed serum samples (20 μL) were transfused to a tube containing 100 μL of water. The 500 μL extraction solvent and acetonitrile/methanol (50:50) was added to the sample. The mixture was vortexed and incubated on ice for 20 minutes to accelerate protein precipitation. After incubation, the samples were vortexed again and centrifuged at 13,000 rpm for 20 minutes at 4° C. The supernatant was then collected and transferred to a new tube, was dried using speed vac, and reconstituted in 200 μL of methanol/water (50:50). The mixture was spun again at 13,000 rpm for 20 minutes at 4° C. The supernatant was then collected into a mass spec sample tube cap and run in the mass spectrometer. For brain, a small section of the thawed brain sample from each animal was transferred to a flat bottom tube. 200 μL of methanol/water (90:10) was added, and the tissue was homogenized. Acetonitrile was then added to the mixture facilitating protein precipitation. The mixture was then incubated on ice for 10 minutes. After incubation, the samples were vortexed and centrifuged at 13,000 rpm for 20 minutes at 4° C. The supernatant was then collected and transferred to a new tube, dried using speed vac, and reconstituted in 200 μL of methanol/water (50:50). The mixture was centrifuged at 13,000 rpm for 20 minutes at 4° C. The supernatant was collected into a mass spec sample tube cap and run in the mass spectrometer. The samples were resolved on an Acquity UPLC BEH C18 […], 2.1×50 mm column online with a triple quadrupole mass spectrometer (Xevo-TQ-S, Waters Corporation, USA) operating in the multiple reaction monitoring (MRM) mode. The sample cone voltage and collision energies were optimized for both analytes to obtain maximum ion intensity for parent and daughter ions using “Intelli Start” feature of MassLynx software (Waters Corporation, USA). The instrument parameters were optimized to gain maximum specificity and sensitivity of ionization for the parent [m/z=438.25] and daughter ions [m/z=357.33]. Signal intensities from all MRM Q1/Q3 ion pairs for analytes were ranked to ensure selection of the most intense precursor and fragment ion pair for MRM-based quantitation. […] Analysis was performed with a six to eight-point calibration curve, the sample queue was randomized and solvent blanks were injected to assess sample carryover. MRM data were processed using TargetLynx 4.1. The relative quantification values of analytes were determined by calculating the ratio of peak areas of transitions of samples normalized to the peak area of the internal standard.

[2] = test system: phosphorylated mTOR; assay: MILLIPLEX Akt/mTOR phosphoprotein analysis; assay type: in vivo, transgenic APP mice; details: mean fluorescent intensity; 1.25 or 2.5 mg/kg
Description: Transgenic mice harboring the Swedish, Dutch, and Iowa mutation for human amyloid beta-precursor protein were treated with intraperitoneal (IP) injections of 10 mg/kg, 5 mg/kg, 2.5 mg/kg, 1.25 mg/kg of LCB 03-0110 or 30 μL of dimethylsulfoxide (DMSO) every day for 1 week. LCB 03-0110 is a potent inhibitor of discoidin domain receptor 2 (DDR2) family tyrosine kinases. All animal experiments were conducted in full compliance with the recommendations of Georgetown University Animal Care and Use Committee (GUAUC). Fifteen mice were used for brain and blood extractions, and fifteen mice were used for drug treatments. Four transgenic APP mice were treated with DMSO, four transgenic APP mice were treated with 10 mg/kg of LCB 03-0110, four transgenic APP mice were treated with 5 mg/kg of LCB 03-0110, four transgenic APP mice were treated with 2.5 mg/kg of LCB 03-0110, and three transgenic APP mice were treated with 1.25 mg/kg of LCB 03-0110. […]
(§1) MILLIPLEX®: Cytokines and chemokines were measured in serum and brain with the Mouse Cytokine/Chemokine Magnetic Bead Panel (Cat MCYTOMAG-70K, EMD Millipore). Human amyloid beta and total tau was measured in brain using the Human Amyloid Beta and Tau Panel (Cat HNABTMAG-68K, EMD Millipore). AKT/mTOR signaling cascade phosphoproteins were measured using the Akt/mTOR Phosphoprotein Magnetic Bread 11-Plex Kit (Cat 48-611MAG, EMD Millipore). […]

[3] = test system: APP mice; assay: Morris water maze; assay type: in vivo; details: 2.5 mg/kg for three weeks; by day three of training; average of three trials
Description: APP mice treated with either DMSO or 2.5 mg/kg LCB-03-0110 for 3 weeks were trained three times a day to find a submerged platform using visuospatial cues inside the apparatus. […] The mouse was allowed up to 60 seconds to find the platform, after which it would be removed from the apparatus after 5 seconds on the platform. If the animal was unable to find the platform, it was placed on the platform for 20 seconds. […] Data are shown as an average of three trials.

[4] = test system: Tau [pS396]; assay: Human Tau [pS396] solid phase sandwich ELISA on brain tissue homogenates from treated transgenic APP mice; assay type: in vivo
Description: (§2) Transgenic mice harboring the Swedish, Dutch, and Iowa mutation for human amyloid beta-precursor protein were treated with intraperitoneal (IP) injections of 10 mg/kg, 5 mg/kg, 2.5 mg/kg, 1.25 mg/kg of LCB 03-0110 or 30 μL of dimethylsulfoxide (DMSO) every day for 1 week. LCB 03-0110 is a potent inhibitor of discoidin domain receptor 2 (DDR2) family tyrosine kinases. All animal experiments were conducted in full compliance with the recommendations of Georgetown University Animal Care and Use Committee (GUAUC). Fifteen mice were used for brain and blood extractions, and fifteen mice were used for drug treatments. Four transgenic APP mice were treated with DMSO, four transgenic APP mice were treated with 10 mg/kg of LCB 03-0110, four transgenic APP mice were treated with 5 mg/kg of LCB 03-0110, four transgenic APP mice were treated with 2.5 mg/kg of LCB 03-0110, and three transgenic APP mice were treated with 1.25 mg/kg of LCB 03-0110. Seven transgenic APP mice were treated with DMSO, and 7 transgenic APP mice were treated with 2.5 mg/kg of LCB.
(§3) Animals were deeply anesthetized with a mixture of Xylazine and Ketamine (1:8). Whole blood (500 μl) was collected via cardiac puncture and centrifuged at 2000×g to precipitate blood cells. The serum was collected for mass spectrometric analysis. To wash out the remaining blood from vessels and reduce contamination, animals were perfused with 25 ml of 1X phosphate buffered saline (PBS) for 5 min and the brains were collected. A hemisphere was frozen and stored at −80° C. for mass spectrometry studies and the other hemisphere was immediately homogenized in 2.0 ml lysis buffer (containing protease and phosphatase inhibitors) and labeled as a soluble protein fraction.
Human Tau [pS396] solid phase sandwich ELISA was performed on brain tissue homogenates from transgenic APP mice treated with LCB 03-0110 at 10 mg/kg, 5 mg/kg, 2.5 mg/kg, and 1.25 mg/kg. A monoclonal Tau capture antibody was coated onto micro-wells. 50 μl of soluble lysate was added to each well, allowing the Tau [pS396] antigen to bind to the immobilized capture antibody, and incubated for two hours at room temperature. After the two hour incubation, samples were washed and incubated with 100 μl of rabbit monoclonal tau [pS396] detection antibody and incubated for one hour at room temperature. Following extensive washing, a 100 μl of horseradish peroxidase labeled anti-rabbit IgG was added to each well and incubated for thirty minutes at room temperature. Samples were washed to remove all unbound enzyme. […] The magnitude of the absorbance for this developed color was proportional to the quantity of Tau […] proteins in the brain tissue homogenates. […] All statistics were performed using ANOVA with Tukey multiple comparison post-test and data were expressed as Mean±SD.

[5] = test system: human amyloid beta; assay: MILLIPLEX Human Amyloid Beta and Tau Panel, soluble and insoluble brain fractions; assay type: in vivo, transgenic APP mice; details: 2.5 mg/kg daily for 3 weeks
Description: as §2, with “Transgenic mice harboring the Swedish, Dutch, and Iowa mutation for human amyloid beta-precursor protein were treated with intraperitoneal (IP) injections of 10 mg/kg, 5 mg/kg, 2.5 mg/kg, 1.25 mg/kg of LCB 03-0110 or 30 μL of dimethylsulfoxide (DMSO) every day for 1 week.” left out
as §3
After removing the soluble supernatant, the tissue pellet was washed with 1×STEN buffer. […]
as §1

[6] = test system: beta-amyloid, synuclein and Tau; assay: LCB-03-0110 tested in cell culture: levels of misfolded proteins; assay type: cell-based; details: low doses (0.1-3 nM)
Description: shRNAs were designed to specifically knock down DDR1 and DDR2 receptors, and study their effects on clearance of misfolded protein accumulation in neurodegeneration. […] These shRNAs were then injected into animal models in vivo. […] A known DDR inhibitor, LCB-03-0110, was tested in cell culture. Low doses (0.1-3 nM) of LCB-03-0110 reduced the levels of beta-amyloid, synuclein and Tau in cell culture.

[7] = test system: APP/Aβ, Aβ42, p-tau (AT180); assay: Western blot of soluble brain fractions of treated APP mice: amyloid and p-tau; assay type: in vivo, transgenic APP mice
Description: as §2
Brain tissues from transgenic APP mice treated with LCB 03-0110 at 10 mg/kg, 5 mg/kg, 2.5 mg/kg, and 1.25 mg/kg were homogenized in 1×STEN buffer, centrifuged at 10,000×g for 20 min at 4° C., and the supernatants containing the soluble fraction were collected. Soluble fractions were probed with mouse monoclonal anti-6E10 (1:1000), rabbit polyclonal anti-Ab42 (1:1000), mouse monoclonal anti-AT180 (1:1000), rabbit polyclonal anti-Beclin-1 (1:1000), rabbit polyclonal anti-Atg7 (1:1000), rabbit polyclonal anti-Atg12 (1:1000), rabbit polyclonal anti-LC3B (1:1000) and rabbit polyclonal anti-actin (1:1000).

[8] = test system: cytokines and chemokines; assay: MILLIPLEX Mouse Cytokine/Chemokine Magnetic Bead Panel; assay type: in vivo, transgenic APP mice; details: 2.5 mg/kg or 1.25 mg/kg
Description: as §2
MILLIPLEX®: Cytokines and chemokines were measured in serum and brain with the Mouse Cytokine/Chemokine Magnetic Bead Panel (Cat MCYTOMAG-70K, EMD Millipore). Human amyloid beta and total tau was measured in brain using the Human Amyloid Beta and Tau Panel (Cat HNABTMAG-68K, EMD Millipore). AKT/mTOR signaling cascade phosphoproteins were measured using the Akt/mTOR Phosphoprotein Magnetic Bread 11-Plex Kit (Cat 48-611MAG, EMD Millipore). Assays were performed according to the manufacturer's protocols.

[9] = test system: Beclin, Atg7, Atg12, LC3-I, LC3-II; assay: Western blot of soluble brain fractions of treated APP mice: autophagy markers; assay type: in vivo, transgenic APP mice; details: 1.25 or 2.5 mg/kg
Description: as §2
Brain tissues from transgenic APP mice treated with LCB 03-0110 at 10 mg/kg, 5 mg/kg, 2.5 mg/kg, and 1.25 mg/kg were homogenized in 1×STEN buffer, centrifuged at 10,000×g for 20 min at 4° C., and the supernatants containing the soluble fraction were collected. […]

[10] = brain response values (Area/IS Area), single IP dose

## Oc1cccc(Nc2ccnc3cc(-c4cccc(CN5CCOCC5)c4)sc23)c1 [LCB 03-0110, 3-(2-(3-(morpholinomethyl)phenyl)thieno[3,2-b]pyridine-7-ylamino)phenol]
[1]; 2.5 mg/kg
  Tmax of the plasma:brain ratio: about 2 hours
[1]; 2.5 mg/kg, among 10, 5, 2.5 and 1.25 mg/kg
  plasma:brain ratio, comparison of doses: highest plasma:brain ratio
[1]; 10 mg/kg, among 10, 5, 2.5 and 1.25 mg/kg
  drug concentration in the brain, comparison of doses: highest drug concentration in the brain
[1]; [10]
  time at which washed out completely from the brain: about 4 hours
  time of peak in the brain: about 1 hour
[1]; single IP dose 1.25, 2.5, 5 or 10 mg/kg
  blood brain barrier penetration: penetrates the blood brain barrier
[2]
  phosphorylated mTOR levels: without altering
[3]
  reduction in the average time to find a submerged platform: 30%
[4]; 10 mg/kg or less, 12-15 month old APP mice, after one week
  total Tau levels: does not alter
[4]; brain homogenate, 10 mg/kg or less (10, 5, 2.5, 1.25 mg/kg) IP daily for 1 week, vs DMSO
  level of phosphorylated Tau (pS396): reduces
[4]; brain homogenate, 10 mg/kg or less IP daily for 1 week, vs DMSO
  ratio of Tau (phosphorylated Tau (pS396)/total Tau): reduces
[4]; less than 2.5 mg/kg versus greater than 5.0 mg/kg
  reducing the ratio of Tau: lower dosages compared with higher dosages: more effective
[5]; brain
  soluble human Aβ40 levels: significantly reduced
  soluble human Aβ42 levels: significantly reduced
[5]; brains of APP mice
  insoluble human Aβ42 levels: significantly reduced
[6]
  levels of Tau: reduced
  levels of beta-amyloid: reduced
  levels of synuclein: reduced
[7]; 1.25 or 2.5 mg/kg daily, after one week
  levels of p-tau (AT180) (Western blot): reduced
[7]; 1.25 or 2.5 mg/kg daily, after one week, actin loading control
  levels of APP/Aβ (Western blot): reduced
[7]; n=5, 3 mutant APP mice, about 2.5 mg/kg or less
  levels of amyloid, densitometry analysis: significantly reduced
[7]; soluble brain fraction, 1.25 or 2.5 mg/kg daily, one week
  beta-amyloid (Aβ42) levels (Western blot): effective in reducing
[8]
  RANTES levels: does not alter
  VEGF-A levels: reduces VEGF-A to control levels
  brain inflammation: reduced
  granulocyte colony-stimulating factor (G-CSF): reductions
  granulocyte-macrophage colony-stimulating factor (GM-CSF): reductions
  macrophage colony-stimulating factor (M-CSF): reductions
  macrophage inflammatory factor 1 alpha (MIP-1α): reductions
  macrophage inflammatory factor 1 beta (MIP-1β): reductions
  macrophage inflammatory protein 1 (MIP-1): reductions
  macrophage inflammatory protein 2 (MIP-2): reductions
[9]
  autophagy and autophagosomes (Beclin, Atg7, Atg12, LC3-I, LC3-II Western blot): stimulates autophagy and clears autophagosomes
[9]; n=5
  level of LC3-II/LC3-I, densitometry analysis of LC3-II levels: significantly reduces
